Data as given in a melting point compilation (Tetko et al.; mined from patent text by program, amines drawn as free bases though some values may be those of a salt).

| melting point [°C] | SMILES |
| --- | --- |
| 166 to 168 | CC(c1oc2ccccc2c(=O)c1-c1cccc(F)c1)n1ccc2ncnc(Cl)c21 (stereo not given) |
| 115 to 118 | Cc1ccc(-c2ccccc2C(=O)Nc2ccc(C(=O)N(CCO)c3ccccc3C)cc2)cc1 |
| 208 to 209 | N=C(Nc1ccc(F)c(NC(=O)/C=C/c2ccccc2C(F)(F)F)c1)c1cccs1 |
| 132 to 135 | COc1ccc(N(S(C)(=O)=O)S(C)(=O)=O)cc1CN1CCC(=O)C(C(c2ccccc2)c2ccccc2)C1 (stereo not given) |
| 195 | OCCOc1ccc(-c2nc(-c3ccccc3)nc(-c3ccccc3)n2)c(O)c1 |
| 196 | CN(C)C(=O)C(C#N)=C1Nc2ccccc2O1 |
| 78.5 to 79 | CCCCCCCCCCCCNC(=O)COc1ccc(/C=C/C(=O)C(F)(F)F)cc1 |
| 106 to 107 | CCCOc1ccc(CN2CCOCC2)cc1-c1nc2c(CCC)nn(C)c2c(=O)[nH]1 |
| 126 to 128 | COc1ccccc1NS(=O)(=O)c1ccc(C)cc1 |
| 173 | Cn1c([N+](=O)[O-])cnc1C=NN1CCN(CCN2CCOCC2)C1=O |
| 137 to 139 | CN(C(=S)Nc1ccc(NNC=O)cc1)c1ccccc1 |
| 126 | CC(C)(C)c1cc(C=O)cc(Br)c1O |
| 177 to 178 | CN(C)C1(c2ccccc2Cl)C(=O)N(Cc2ccc(C(=O)NC(C)(C)C)cc2)c2ccc(Cl)cc21 (stereo not given) |
| 206 to 209 | Cc1cn2c(=O)c3cc(S(=O)(=O)Cl)ccc3nc2s1 |
| 230 to 231 | O=C(NCc1cccc(O)c1)c1[nH]c2ccc(Cl)cc2c1S(=O)(=O)c1cccc(Cl)c1 |
| 65 to 68 | Cc1cc(-c2nc3cc(OC(C)C)cc(OC(C)C)c3c(=O)[nH]2)cc(C)c1OCCN1CCCC1 |
| 116 to 117 | Cc1cccc(-c2nc(CCOc3ccc(/C=C/CO)cc3)c(C)o2)c1 |
| 123 to 125 | CCOC(=O)Cc1sc(Sc2cccc(C(=O)O)n2)nc1C |
| 147 to 149 | CCN(CC)CC1CCCCN1CC(=O)N1c2ccccc2NC(=O)c2csc(C)c21 (stereo not given) |
| 164 | O=C(c1ccc(F)cc1)C1CCN(CCCn2c(=O)[nH]c3cc(Cl)ccc32)CC1 |
| 97 to 100 | O=S1Cc2ccccc2-c2ccccc21 (stereo not given) |
| 75 to 77 | CC(C)c1ccccc1NC#N |
| 294 to 296 | c1cn(-c2cc(-n3cnc4cc(-c5ccoc5)ccc43)ncn2)cn1 |

More lines, now with the values behind:

| SMILES | melting point [°C] |
| --- | --- |
| CC(C)(C)OC(=O)NCCNC(=O)c1cnc(S)n1Cc1cc(F)cc(F)c1 | 178 to 179 |
| CN(c1ccc(Cl)cc1)C1CCN(C2CCN(c3ccc(OC[C@@]4(C)Cn5cc([N+](=O)[O-])nc5O4)cc3)CC2)CC1 | 231 to 232 |
| O=C(c1ccc(F)cc1)c1cnn2c(-c3ccncc3)ccnc12 | 214 to 216 |
| CN1CCC(c2c[nH]c3ccc(-c4cccs4)cc23)C1 (stereo not given) | 166 to 168 |
| CC(C)n1nc(-c2nc(O)cnc2-c2ccccc2)ccc1=O | 198 to 200 |
| CC(=O)OCC(=O)c1ccc(C)cc1C | 43 to 45 |
| CC1(C(O)(Cc2ccccc2Cl)Cn2cncn2)CCCC1 (stereo not given) | 110 |
| CCC(=O)OCC(=O)C1(OC(=O)c2ccccc2)CCC2C3CC(C)C4=CC(=O)C=CC4(C)C3C(O)CC21C (stereo not given) | 241 |
| O=C(c1ccc(O)cc1)c1oc2ccccc2c1-c1ccc(Cl)cc1 | 220 to 221 |
| NC(CO)c1ccc(OC(F)F)cc1 (stereo not given) | 54 to 57 |
| C=CCc1cccc(-c2nc3n(C4CCCC4)[nH]c(CC)c-3c(=O)n2)c1O | > 280 |
| CNC(=O)c1cc2ccccc2c(-c2ccccc2I)n1 | 167 to 168 |
| CCOC(=O)c1cc2cccc(NS(=O)(=O)c3ccsc3C(=O)OC)c2[nH]1 | 173 to 174 |
| NS(=O)(=O)c1cc2cc(CCBr)ccc2s1 | 118 to 120 |
| Cc1cc(OCc2ccc(-c3ccc(C(F)(F)F)cc3)nc2)ccc1OC(C)(C)C(=O)O | 149 to 151 |
| CN(C)Cc1c(-c2ccccc2)oc2c(CO)cccc2c1=O | 150 |
| O=C(O)CN(CC(=O)O)CC(=O)Nc1c(F)c(F)c(F)c(F)c1F | 182 to 183 |
| Nc1ncnc2c1c(-c1cccc(O)c1)cn2C1CC(CN2CCCC2)C1 (stereo not given) | 193 to 194 |
| C=CCOP(=O)(OCC=C)C(N)=O | 91 to 94 |
| CCCCCCCCCCCCc1cc(C(=O)OCC)no1 | 34 to 36 |
| Cc1cn(C2CCN(c3c(F)cc4c(=O)c(C(=O)O)cn(C5CC5)c4c3F)C2)nn1 (stereo not given) | 219 to 220 |
| COc1ccc(C(=CC#N)c2ccc3ccccc3c2)cc1OC | 121 to 123 |
| COC(=O)c1ccc(OCCNC(=O)C2Cc3ccccc3N2S(=O)(=O)c2ccc(-c3cccc(C(F)(F)F)c3)cc2)c(C(F)(F)F)c1 (stereo not given) | 92 to 98 |
| CCOC(=O)c1nccc2c(C)c3c(cc12)c1cc(O)ccc1n3CC | 260 |
| Oc1ccc(-c2nn(-c3ccc(Br)cc3)c3c(C(F)(F)F)cccc23)cc1 | 176 to 177 |
| CCOC(=O)C1=C(NC(C)=O)C(=O)O[C@@H]1C | 119 to 122 |
| CCN(CC)C(=O)n1cnc(S(=O)(=O)CC2CC2)n1 | 68 to 74 |
